For assay [1], the target named is T1, Akt1 (Homo sapiens, UniProt P31749, S473D).
T1 construct: The version of Akt used in these studies lacks the pleckstrin homology (PH) domain
Briefly: Akt1 kinase assay, fluorescence polarization (IMAP). The assay is classed as biochemical. In a few lines:
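His-tagged Akt1 lacking the PH domain, Thr308-prephosphorylated, 1.5 ng per reaction, with 4 μM ATP and 40 nM TAMRA-Crosstide (solution concentrations) in Tris pH 7.5/MgCl2/DTT buffer. Incubated 30 min at ambient temperature; IMAP fluorescence polarization read (544/615 nm). IC50 after subtraction of no-enzyme background.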

In assay [2] the target is T2, PKA, catalytic subunit, recombinant (Homo sapiens, UniProt P17612).
T2 construct: purchased Upstate 14-440
Briefly: PKA IMAP Kinase Assay. The assay is classed as biochemical. The settings on record: for Selectivity Ratio (PKA/Akt): PKA IC50 divided by Akt IC50; for IC50: Table 6, selectivity study. As for the experimental part:
The PKA Kinase assay is used to measure the selectivity of the compounds of formula I for PKA kinase as discussed below. The PKA activity of the compounds of formula I was determined using the PKA IMAP® Kinase Assay (G7096A).
Materials: • 1) Kinase Reaction Buffer (RB):—10 mM Tris-HCl, pH 7.5, 10 mM MgCl2, 0.1 mM EGTA, 0.01% Triton-X 100 (Sigma #X-100); 1 mM DTT (N.E. Biolabs #B7705S) added fresh • 2) ATP (Sigma #5394) 10 mM stock in H2O, −20° C. • 3) 20 μM working stock TAMRA Kemptide (TK. Molecular Devices #R7332): [N-Term]TMRS-Leu-Arg-Arg-Ala-Ser-Leu-Gly-OH[C-Term] • 4) PKA, catalytic subunit, recombinant (Upstate #14-440). 5 ug/25 ul lot 22361AU • 5) DMSO (Baker #9224-01) • 6) IMAP® Progressive Express Screening Kit for IPP (Molecular Devices #R8124) Includes IMAP® Progressive Beads and Binding Buffer • 7) 96-well ½ area plates, black polystyrene, Costar #3694 • 8) 96-well round bottom polypropylene plates, Costar #9667
NOTE: Protect all Tamra-Containing Reagents from Light.
• 1) Prepare the 1× Reaction Buffer (RB) by fresh addition of DTT to 1 mM • 2) For single point testing, make up compound dilution plate as follows: “96 well plates; Row Empty: empty; 84 cmpds” are added to the remaining wells at […]. • 3) For 150 determination: To column 2 of polypropylene plate add 100 ul 100% DMSO; to all other wells add 60 ul 100% DMSO. • 4) Pipet 2 ul 10 mM stock compound to column 2; mix well • 5) Serially dilute 1:3 across from column 2-11, transferring 30 ul to next well and mixing well. • 6) Leave column 12 for zero compound (control signal) • 7) For Single Point testing (10 uM final) add 1 ul 10 mM compound to 100 ul DMSO; mix; transfer 5 ul to 120 ul RB; mix; transfer 5 ul to Assay Plate • 8) For 150 determination: Make up compound RB dilution plate: 60 μl/well RB in 96-well polypropylene round bottom plate. • 9) Transfer compounds to assay plate as follows: Mix DMSO dilutions; transfer 15 μl to 60 μl RB; transfer 5 μl/well to assay plates (single points, triplicate plates), delivering carefully to the bottom of the well; repeat for each dilution up to 10 μM. • 10) To run PKA Reactions: Make up ATP/KT solution; 4 uM ATP, 200 nM KT ([…], 100 nM KTfinal) • 11) Pipet 10 μl KT/ATP to wells containing compound. • 12) Make up protein solution in RB and determine the protein concentration. • 13) Deliver 5 μl protein solution to all wells except A1-H1, delivering to the upper region of the side of the well; Add 5 μl RB to A1-H1 (these are the 0 protein background controls) • 14) Gently tap the plate to ensure all volumes get to the bottom. Cover with foil lid. • 15) Incubate RT on bench top 30 minutes. • 16) Add 60 μl IMAP® beads in IMAP® Progressive binding buffer (100% A) diluted 1:1000 • 17) Read on VICTOR™ plate reader (protocol LissieTAMRA2) with the following settings: CW lamp filter 544 nm; emission filter 615 nm. Some adjustments may be made to the plate reader protocol depending on the reader and available filters. • 18) Use XLDA to calculate IC50s.

Where [3] appears, read: Table 6, selectivity study, read-out: Akt Kinase Activity.
Where [4] appears, read: Table 3, read-out: Avg Akt kinase, μM (50% inhibition).

Where two headings read alike, the source gives them in different places.

T1 sequence (P31749 118-480 S473D limits assumed, species assumed): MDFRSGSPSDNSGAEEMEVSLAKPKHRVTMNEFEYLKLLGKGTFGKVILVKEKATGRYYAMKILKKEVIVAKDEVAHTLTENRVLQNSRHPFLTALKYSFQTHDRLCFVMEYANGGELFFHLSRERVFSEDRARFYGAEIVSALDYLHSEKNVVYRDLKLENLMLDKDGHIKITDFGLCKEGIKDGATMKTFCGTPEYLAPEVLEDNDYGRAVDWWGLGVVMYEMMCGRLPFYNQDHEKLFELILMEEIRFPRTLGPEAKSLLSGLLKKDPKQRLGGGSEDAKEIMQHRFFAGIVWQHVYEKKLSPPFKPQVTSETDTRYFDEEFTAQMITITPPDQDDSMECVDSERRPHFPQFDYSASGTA

Consider `Cc1c[nH]c2ncnc(N3CCC(N)(CNc4ccc(Cl)cc4)CC3)c12` [BB, 4-(4-chloro(phenylamino)methyl)-1-(5-methyl-7H-pyrrolo[2,3-d]pyrimidin-4-yl)piperidin-4-amine, reference compound], for which the results for the IC50 in assay [1] (setting [3]) and in assay [2] were 0.0459 µM and 26.3 nM, respectively. Also, the “Selectivity Ratio (PKA/Akt)” value in assay [2] came out at 0.57.

For `Cc1c[nH]c2ncnc(N3CCC(N)(CNS(=O)(=O)c4c(F)cccc4F)C3)c12` (centres unmarked) [Example 198, N-{[3-amino-1-(5-methyl-7H-pyrrolo[2,3-d]pyrimidin-4-yl)pyrrolidin-3-yl]methyl}-2,6-difluorobenzenesulfonamide], the IC50 in assay [1] (Table 1, concentration bins, read-out: Concentration Range at which exemplary compounds of formula I inhibit Akt kinase activity) is 0.0101 to 0.1 µM; in assay [1] (read-out: Avg Akt kinase, μM (50% inhibition)), 0.00267 µM.

In the case of `Cc1c[nH]c2ncnc(N3CCC(N)(CNc4ccccc4)C3)c12` (centres unmarked) [Example 199, 3-((phenylamino)methyl)-1-(5-methyl-7H-pyrrolo[2,3-d]pyrimidin-4-yl)pyrrolidin-3-amine], the IC50 in assay [1] (setting [3]) came to 0.162 µM. In assay [2], the “Selectivity Ratio (PKA/Akt)” value is listed as 15.93 and the IC50 was 2580 nM.

With `Cc1c[nH]c2ncnc(N3CCC(N)(CNc4ccc(Cl)cc4)C3)c12` (centres unmarked) [Example 200, 3-(4-chloro(phenylamino)methyl)-1-(5-methyl-7H-pyrrolo[2,3-d]pyrimidin-4-yl)pyrrolidin-3-amine], the IC50 in assay [1] (setting [3]) was found to be 0.118 µM. For the same compound, in assay [2], the “Selectivity Ratio (PKA/Akt)” value was determined as 2.36 and the IC50 was 279 nM.

For “(E)-3-(3-trifluoromethyl)styryl)-1-(5-methyl-7H-pyrrolo[2,3-d]pyrimidin-4-yl)-3-amine [Example 68]”, the IC50 in assay [1] (average Akt kinase activity (IC50), read-out: Avg Akt kinase, μM (50% inhibition)) was determined as 1.14 µM.

Take “N-{[3-amino-1-(1H-pyrrolo[2,3-b]pyridin-4-yl)pyrrolidin-3-yl]methyl}-5-chloropyrimidin-2-amine [Example 59]”: the IC50 in assay [1] (setting [4]) was 0.0035 µM.

Turning to “N-{[3-amino-1-(5-methyl-7H-pyrrolo[2,3-d]pyrimidin-4-yl)pyrrolidin-3-yl]methyl}pyrimidin-2-amine [Example 58]”, the IC50 in assay [1] (setting [4]) amounted to 0.123 µM.

The values above are taken from patent US20080051419A1, “AMINE DERIVATIVES USEFUL AS ANTICANCER AGENTS” (PFIZER INC., priority 2006, published 2008).
